#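 Values below derive from 48-hour exposures of cells grown in 96-well plates, with endpoints linearly interpolated between the two concentrations bracketing the appropriate inhibition level. Here, GI50 denotes the concentration required for 50% inhibition of growth. The concentration for full growth arrest is given as TGI.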
# Legend:
# Assay in all cases: NCI tumour cell line growth inhibition, 48 h
# DU-145 prostate = test system: DU-145 prostate
# NCI-H226 lung = test system: NCI-H226 lung
# UACC-257 melanoma = test system: UACC-257 melanoma
# HT29 colon = test system: HT29 colon
# ACHN renal = test system: ACHN renal
# NCI-H23 lung = test system: NCI-H23 lung
# SF-539 CNS = test system: SF-539 CNS
# MOLT-4 leukemia = test system: MOLT-4 leukemia
SMILES,GI50 (DU-145 prostate) [µM],TGI (DU-145 prostate) [µM],GI50 (NCI-H226 lung) [µM],TGI (NCI-H226 lung) [µM],GI50 (UACC-257 melanoma) [µM],TGI (UACC-257 melanoma) [µM],GI50 (HT29 colon) [µM],TGI (HT29 colon) [µM],GI50 (ACHN renal) [µM],TGI (ACHN renal) [µM],GI50 (NCI-H23 lung) [µM],TGI (NCI-H23 lung) [µM],GI50 (SF-539 CNS) [µM],TGI (SF-539 CNS) [µM],GI50 (MOLT-4 leukemia) [µM],TGI (MOLT-4 leukemia) [µM]
C=C1C(=O)OC(CCCCCCCC)C1C(=O)O (configuration not stated),15.2,30.1,19.8,48.1,11.6,25,22.1,47.2,17.2,31,14.2,29.2,17,31.6,22.2,54
NC(=O)C/C=C/CC(N)=O,,> 100,,> 100,,> 100,,> 100,,> 100,,> 100,,> 100,,
O=C(Nc1ccc(Cl)c(Cl)c1)Nc1ccc(Cl)c([N+](=O)[O-])c1,1.2,> 25,1.3,5.54,2.85,7.15,1.24,4.82,0.8,3.06,0.698,2.69,2.17,5.51,0.925,> 25
CCc1ccc(Cc2ccc(CC)c(NC(=O)C(=O)Cc3nc4ccccc4nc3C)c2CC)c(CC)c1NC(=O)C(=O)Cc1nc2ccccc2nc1C,,,,,,> 100,,,,> 100,,> 100,,> 100,,> 100
N#Cc1c(N)nn(C(=O)c2ccc(NC(=O)c3ccccn3)cc2)c1-c1ccc(Cl)cc1,2.7,7.29,3.08,31,4.34,68.3,3.55,> 100,3.48,15.5,3.77,34.8,3.21,12.5,25.7,> 100
COC(=O)C1=CC(=O)C(C(=O)Nc2ccc(OC)cc2)C(c2ccccc2)O1 (configuration not stated),,,,55.1,,> 100,,> 100,,> 71.9,,46.6,,40.3,,> 100
Cc1ccc(CCC(=O)Nc2ncc(Cc3cc(Cl)ccc3Cl)s2)o1,0.351,> 32.9,0.901,,13.4,> 100,0.054,,0.665,4.85,0.471,> 37.7,0.218,0.712,0.222,> 44.2
CC1(CCCC2(C)CCNC2=O)OCCO1 (configuration not stated),,> 10,,> 10,,> 10,,> 10,,> 10,,> 10,,> 10,,> 10
[O-][n+]1onc2c3nn(-c4ccccc4)nc3ccc21,,57.8,,> 100,,> 92.2,,> 100,,> 100,,> 100,,> 100,,> 100
O=C1CCCC1C(=O)Nc1ccc2ccccc2c1 (configuration not stated),,> 100,,> 100,,> 100,,> 100,,> 100,,> 100,,,,> 100
COc1ccc(CN2CCc3c(Cl)nc(N)nc3C2=O)c(OC)c1,18.2,40.3,18.3,41.7,19.3,49.1,15.2,29.1,20.4,48.5,15.8,32.2,15.8,31.7,2.46,34.6
CC(=O)O[C@@H]1C=CC(=O)C2(CC(=O)O[C@@H]2/C=C(\C)CCC=C(C)C)C1 (some centres not stated),0.633,2.38,0.623,4.77,1.03,2.6,0.529,73.9,1.16,2.43,0.365,1.33,0.591,1.44,0.126,1.03
CN1CCC(O)C(CNC23CC4CC(CC(C4)C2)C3)C1 (configuration not stated),,,,> 100,,> 100,,> 100,,> 100,,> 100,,> 100,,> 100
CC/C(=C(\c1ccccc1)c1ccc(OCCN(C)C)cc1)c1ccccc1,,,,,0.971,,1.17,,,,3.68,,,,,
CCN(CC)CCn1c(=N)n(CC(O)c2ccc(Cl)c(Cl)c2)c2ccccc21 (configuration not stated),13.9,26.8,17,36.9,,,3.3,12.1,11.9,24.4,15,32.5,2.86,10.1,3.1,13.1
CC(C)c1ccc2c(c1)CCC1C(C)(C)[C@@H](O)CC[C@]21C (some centres not stated),,,,38.5,,,,30,,> 100,,93,,65.1,,89.9
CC(=O)NNc1nc(C)c(C(/C=C/c2ccc(/C=C/C(=N\NC(=O)c3ccncc3)c3sc(NNC(C)=O)nc3C)cc2)=N/NC(=O)c2ccncc2)s1,,,,> 100,,> 100,,> 100,,> 100,,> 100,,> 100,,> 100
COc1ccc([C@H]2c3cc(OC)c(OC)cc3C=C(C=O)C2CO)cc1OC (some centres not stated),3.51,21.8,> 100,> 100,> 100,> 100,,,7.53,> 100,7.15,> 100,3.33,> 100,> 100,> 100
CN(C)C1(C#N)CCC2(CC1)OCCO2,,,,> 100,,> 100,,> 100,,> 100,,> 100,,> 100,,> 100
CC/C=C/[C@@H]1C=C[C@@H]2CCC[C@H]2[C@@H]1CC[C@H](O)[C@H](C)N,1.93,3.98,11.9,27.6,,,1.46,2.77,1.59,2.94,1.78,3.98,1.67,3.03,1.72,3.68
COc1ccccc1/C=C1\COc2ccc(O)c(O)c2C1=O,2.32,> 100,1.9,5.08,,,2.77,7.78,1.31,2.64,2.04,6.11,1.52,3.35,1.79,19.1

# — PubChem BioAssay (NCI)
